Assay results published in US20190274948A1, “PREBIOTIC COSMETIC COMPOSITIONS AND USE OF THE PREBIOTIC COSMETIC COMPOSITIONS” (Natura Cosméticos S.A., priority 2016, published 2019).
Where two headings read alike, the source gives them in different places.

Key:
MMP-1 = MMP-1 synthesis in human fibroblast cultures stimulated with LPS; assay type: cell-based; conditions: 6.25% (p/v); vs PMA/LPS Control
[1] = tested on: Staphylococcus epidermidis; assay: Prebiotic activity: growth in minimal carbon support medium; assay type: cell-based; conditions: 0.5%
Protocol: (§1) When a concentration of 10^4 UFC/ml was reached, the micro-organisms were transferred to a minimal carbon support medium that provided the conditions required for micro-organism replication.
(§2) Each active ingredient in the compositions addressed by this invention was added to the culture medium and cultivated. Should any increased count be noted, the ingredient would be considered as having prebiotic activity.
(§3) The results of each assay were submitted to statistical analysis. The active ingredients used in the prebiotic cosmetic compositions addressed by this invention were tested on different micro-organisms.
(§4) The beneficial micro-organisms assayed were: Staphylococcus epidermidis, Staphylococcus xylosus, Staphylococcus warneri, Staphylococcus captis and Corynebacterium xerosis.

Staphylococcus xylosus = assay: as above; assay type: cell-based
Protocol: as §1, §2, §3, §4

human fibroblasts = assay: Cell proliferation in human fibroblast cultures; assay type: cell-based; conditions: for increase of proliferation: vs Control group
Text: As a positive assay control, human fibroblasts were cultivated in a culture medium supplemented with 2% of fetal bovine serum.

GAG = conditions: 72 hours
IL-8 = IL-8 synthesis in human fibroblast cultures stimulated with LPS; assay type: cell-based; conditions: 3.12% (w/v); vs LPS Control
IL-10 = IL-10 synthesis in human fibroblast cultures stimulated with PMA/LPS; assay type: cell-based; conditions: concentration not given; vs PMA/LPS Control
elastin = assay: Elastin synthesis in human fibroblast cultures; assay type: cell-based; conditions: 48 hours, vs Baseline Control
Protocol: Human fibroblast cultures were incubated for 48 hours with the product.

IL-6 = IL-6 synthesis in human fibroblast cultures stimulated with PMA/LPS; assay type: cell-based; conditions: vs PMA/LPS Control
[2] = tested on: tested skin-dwelling micro-organisms; assay: Prebiotic activity on panel of beneficial and undesirable skin micro-organisms; assay type: cell-based; conditions: FIG. 1
Protocol: as §1, §2, §3, §4
The undesirable micro-organisms assayed were: Staphylococcus aureus, Corynebacterium striatum, Corynebacterium jeikeium, Propioniumbacteria acnes and Candida albicans.

Compound | reduction in MMP-1 synthesis (MMP-1) [%] | growth of S. epidermidis [1] | growth of S. xylosus (Staphylococcus xylosus) | increase of proliferation (human fibroblasts; 1.563% (w/v)) [%] | increase of proliferation (human fibroblasts; 6.250% (w/v)) [%] | Fibroblast proliferation, Increase (human fibroblasts; Table 1) | lowering of GAG levels (GAG; 3.12% (w/v)) [%] | lowering of GAG levels (GAG; 6.25% (w/v)) [%] | reduction of IL-8 synthesis (IL-8) [%] | reductions of IL-10 synthesis (IL-10) | increase of elastin synthesis (elastin; 1.56% (w/v)) [%] | increase of elastin synthesis (elastin; 3.12% (w/v)) [%] | increase of elastin synthesis (elastin; 6.25% (w/v)) [%] | drop of IL-6 synthesis (IL-6; 3.12% (w/v)) [%] | drop of IL-6 synthesis (IL-6; 6.25% (w/v)) [%] | selectivity for any of the tested skin-dwelling micro-organisms [2]
OC[C@H]1O[C@H](O[C@H]2O[C@H](CO)[C@@H](O)[C@H](O)[C@H]2O)[C@H](O)[C@@H](O)[C@@H]1O [trehalose] | 20 | selectively favored the growth | selectively favored the growth | 33 | 12.25 | of 33% | 23 | 59 | 16 | up to 31% | 75 | 68 | 60 | 19 | 78 | 
inulin |  |  |  |  |  |  |  |  |  |  |  |  |  |  |  | did not present selectivity
